Experimental data taken from patent US20260193293A1, “PEPTIDES CAPABLE OF INHIBITING PROTEIN-PROTEIN INTERACTIONS AT GABAB1A SUBUNIT AND USES THEREOF” (UNIVERSITY OF COPENHAGEN, priority 2022, published 2026).
Read-outs that look alike come from different tables or passages of the source. Each block holds one compound with its values, some of them ahead of it. Non-standard residues stand in square brackets, D forms with d. Residues, ends and D or L forms follow the SMILES beside them. *: point of attachment. NMeW = CN[C@@H](Cc1c[nH]c2ccccc12)C(=O)O; 1Nal = N[C@@H](Cc1cccc2ccccc12)C(=O)O; NMeE = CN[C@@H](CCC(=O)O)C(=O)O; NMeD = CN[C@@H](CC(=O)O)C(=O)O; NMeS = CN[C@@H](CO)C(=O)O; Bn = c1ccc(C*)cc1

Biological target: Sushi domains (SD1/2) protein
Experiment: Fluorescence polarization (FP) competition assay with AJAP-1probe, calculated Ki
Format: binding
Settings: read-out: Ki (nM) mean ± SEM
Method in brief: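 Ki values were derived from IC50s (sigmoidal fits, ≥ triplicate), with probe Kd obtained by saturation titration of SD1/2. Peptides displaced a 25 nM TAMRA-labelled probe; polarization read at 530/580 nm in 1% BSA-containing PBS, pH 7.4, room temperature.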

[1] = Table 5, elongation and truncation scan of AJAP-1 binding epitope
[2] = Table 6, elongation and truncation scan of PIANP binding epitope
[3] = Table 7, Ala-, D-amino acids and N-methylation scans of APPWT
[4] = Table 16, ncAAs incorporated peptides

Ki [1]: 2470 ± 170 nM
Structure (SMILES): CC[C@H](C)[C@H](NC(=O)[C@H](Cc1ccccc1)NC(=O)[C@H](CCC(=O)O)NC(=O)[C@@H](NC(=O)[C@H](CCC(=O)O)NC(=O)[C@@H](NC(C)=O)[C@@H](C)O)[C@@H](C)O)C(=O)N[C@@H](C)C(=O)N[C@@H](Cc1c[nH]c2ccccc12)C(=O)NCC(N)=O (Ac-TETEFIAWG-NH2)

Ki (Table 14, CPPs tagged peptides): 65 ± 2 nM
Structure (SMILES): CC[C@H](C)[C@H](NC(=O)[C@H](Cc1c[nH]c2ccccc12)NC(=O)[C@H](CC(=O)O)NC(=O)[C@H](CC(=O)O)NC(=O)[C@H](CC(=O)O)NC(=O)[C@H](CCC(=O)O)NC(=O)[C@H](CCCNC(=N)N)NC(=O)[C@H](CCCNC(=N)N)NC(=O)[C@H](CCCNC(=N)N)NC(=O)[C@H](CCCNC(=N)N)NC(=O)[C@H](CCCNC(=N)N)NC(=O)[C@H](CCCNC(=N)N)NC(=O)[C@H](CCCNC(=N)N)NC(C)=O)C(=O)N[C@@H](CC(=O)O)C(=O)N[C@@H](Cc1c[nH]c2ccccc12)C(=O)NCC(=O)N1CCC[C@H]1C(=O)N[C@H](C(=O)N[C@@H](CO)C(=O)N[C@@H](CC(=O)O)C(=O)N[C@@H](CC(=O)O)C(=O)N[C@@H](CC(=O)O)C(N)=O)[C@@H](C)O (Ac-RRRRRRREDDDWIDWGPTSDDD-NH2)

Ki [2]: 706 ± 16 nM
Structure (SMILES): CC[C@H](C)[C@H](NC(=O)[C@H](C)NC(=O)[C@H](Cc1c[nH]c2ccccc12)NC(=O)[C@@H]1CCCN1C(C)=O)C(=O)N[C@H](C(=O)N[C@@H](Cc1c[nH]c2ccccc12)C(N)=O)C(C)C [PWAIVW] (Ac-PWAIVW-NH2)

Ki (Table 9, Ala-, D-amino acids and N-methylation scans of PIANPWT): 523 ± 13 nM
Structure (SMILES): CC[C@H](C)[C@H](NC(=O)[C@H](C)NC(=O)[C@H](Cc1c[nH]c2ccccc12)NC(=O)[C@@H]1CCCN1C(C)=O)C(=O)N[C@H](C(=O)N[C@@H](Cc1c[nH]c2ccccc12)C(=O)NCC(=O)N1CCC[C@H]1C(=O)N[C@H](C(=O)N[C@H](C(=O)N[C@@H](CO)C(=O)N[C@@H](CCCNC(=N)N)C(=O)N(C)[C@@H](CCC(=O)O)C(=O)N[C@@H](CC(=O)O)C(N)=O)C(C)C)[C@@H](C)O)C(C)C (Ac-PWAIVWGPTVSR[NMeE]D-NH2)

Ki [2]: 716 ± 6 nM
Structure (SMILES): CC[C@H](C)[C@H](NC(=O)[C@H](C)NC(=O)[C@H](Cc1c[nH]c2ccccc12)NC(=O)[C@@H]1CCCN1C(C)=O)C(=O)N[C@H](C(=O)N[C@@H](Cc1c[nH]c2ccccc12)C(=O)NCC(=O)N1CCC[C@H]1C(=O)N[C@H](C(=O)N[C@H](C(=O)N[C@@H](CO)C(=O)N[C@@H](CCCNC(=N)N)C(=O)N[C@@H](CCC(=O)O)C(=O)N[C@@H](CC(=O)O)C(=O)NCC(=O)NCC(=O)N[C@@H](CC(=O)O)C(N)=O)C(C)C)[C@@H](C)O)C(C)C (Ac-PWAIVWGPTVSREDGGD-NH2)

Ki (Table 10, deep mutational scanning validation variants of APPWT): 257 ± 4 nM
Structure (SMILES): CC(=O)N[C@@H](CCC(=O)O)C(=O)N[C@@H](CC(=O)O)C(=O)N[C@@H](CC(=O)O)C(=O)N[C@@H](Cc1c[nH]c2ccccc12)C(=O)N[C@@H](CC(=O)O)C(=O)N[C@H](C(=O)N[C@@H](Cc1c[nH]c2ccccc12)C(=O)N[C@@H](Cc1c[nH]c2ccccc12)C(=O)NCC(=O)NCC(=O)N[C@@H](C)C(=O)N[C@@H](CC(=O)O)C(=O)N[C@H](C(=O)N[C@@H](CC(=O)O)C(N)=O)[C@@H](C)O)C(C)C (Ac-EDDWDVWWGGADTD-NH2)

Ki (Table 7, cells printed in μM): > 62500 nM
Structure (SMILES): CC(=O)N[C@@H](CCC(=O)O)C(=O)N[C@@H](CC(=O)O)C(=O)N[C@@H](CC(=O)O)C(=O)N[C@@H](CO)C(=O)N[C@@H](CC(=O)O)C(=O)N[C@@H](C)C(=O)N[C@@H](Cc1c[nH]c2ccccc12)C(=O)N[C@@H](Cc1c[nH]c2ccccc12)C(=O)NCC(=O)NCC(=O)N[C@@H](C)C(=O)N[C@@H](CC(=O)O)C(=O)N[C@H](C(=O)N[C@@H](CC(=O)O)C(N)=O)[C@@H](C)O (Ac-EDDSDAWWGGADTD-NH2)

Ki (Table 4, truncation and elongation scans of APP epitope): 1020 ± 18 nM
Structure (SMILES): CC(=O)N[C@@H](CCC(=O)O)C(=O)N[C@@H](CCC(=O)O)C(=O)N[C@@H](CC(=O)O)C(=O)N[C@@H](CC(=O)O)C(=O)N[C@@H](CO)C(=O)N[C@@H](CC(=O)O)C(=O)N[C@H](C(=O)N[C@@H](Cc1c[nH]c2ccccc12)C(=O)N[C@@H](Cc1c[nH]c2ccccc12)C(=O)NCC(=O)NCC(=O)N[C@@H](C)C(N)=O)C(C)C (Ac-EEDDSDVWWGGA-NH2)

Ki [2]: 433 ± 2 nM
Structure (SMILES): CC[C@H](C)[C@H](NC(=O)[C@H](C)NC(=O)[C@H](Cc1c[nH]c2ccccc12)NC(=O)[C@@H]1CCCN1C(C)=O)C(=O)N[C@H](C(=O)N[C@@H](Cc1c[nH]c2ccccc12)C(=O)NCC(=O)N1CCC[C@H]1C(=O)N[C@H](C(=O)N[C@H](C(=O)N[C@@H](CO)C(=O)N[C@@H](CCCNC(=N)N)C(N)=O)C(C)C)[C@@H](C)O)C(C)C (Ac-PWAIVWGPTVSR-NH2)

Ki [3]: 1670 ± 32 nM
Structure (SMILES): CC(=O)N[C@@H](CCC(=O)O)C(=O)N[C@@H](CC(=O)O)C(=O)N[C@@H](CC(=O)O)C(=O)N(C)[C@@H](CO)C(=O)N[C@@H](CC(=O)O)C(=O)N[C@H](C(=O)N[C@@H](Cc1c[nH]c2ccccc12)C(=O)N[C@@H](Cc1c[nH]c2ccccc12)C(=O)NCC(=O)NCC(=O)N[C@@H](C)C(=O)N[C@@H](CC(=O)O)C(=O)N[C@H](C(=O)N[C@@H](CC(=O)O)C(N)=O)[C@@H](C)O)C(C)C (Ac-EDD[NMeS]DVWWGGADTD-NH2)

Ki [4]: 88 ± 4 nM
Structure (SMILES): CC(=O)N[C@@H](CCC(=O)O)C(=O)N[C@@H](CC(=O)O)C(=O)N[C@@H](CC(=O)O)C(=O)N[C@@H](CO)C(=O)N[C@@H](CC(=O)O)C(=O)N[C@H](C(=O)N[C@@H](Cc1c[nH]c2ccccc12)C(=O)N[C@@H](Cc1c[nH]c2ccccc12)C(=O)N[C@@H](Cc1ccc(OCc2ccccc2)cc1)C(=O)NCC(=O)N[C@@H](C)C(=O)N[C@@H](CC(=O)O)C(=O)N[C@H](C(=O)N[C@@H](CC(=O)O)C(N)=O)[C@@H](C)O)C(C)C (Ac-EDDSDVWWY(Bn)GADTD-NH2)

Ki [2]: > 62500 nM
Structure (SMILES): CC[C@H](C)[C@H](NC(=O)[C@H](C)NC(=O)[C@H](Cc1c[nH]c2ccccc12)NC(C)=O)C(=O)N[C@H](C(=O)N[C@@H](Cc1c[nH]c2ccccc12)C(=O)NCC(=O)N1CCC[C@H]1C(=O)N[C@H](C(=O)N[C@H](C(=O)N[C@@H](CO)C(=O)N[C@@H](CCCNC(=N)N)C(=O)N[C@@H](CCC(=O)O)C(=O)N[C@@H](CC(=O)O)C(=O)NCC(N)=O)C(C)C)[C@@H](C)O)C(C)C (Ac-WAIVWGPTVSREDG-NH2)

Ki [1]: 38000 ± 430 nM
Structure (SMILES): CC[C@H](C)[C@H](NC(C)=O)C(=O)N[C@@H](C)C(=O)N[C@@H](Cc1c[nH]c2ccccc12)C(=O)NCC(=O)N1CCC[C@H]1C(=O)N[C@H](C(=O)NCC(=O)N[C@@H](CC(=O)O)C(=O)N[C@@H](CCC(=O)O)C(=O)N[C@@H](CC(=O)O)C(N)=O)[C@@H](C)O [IAWGPTGDED] (Ac-IAWGPTGDED-NH2)

Ki [3]: 671 ± 27 nM
Structure (SMILES): CC(=O)N[C@@H](CCC(=O)O)C(=O)N[C@@H](CC(=O)O)C(=O)N(C)[C@@H](CC(=O)O)C(=O)N[C@@H](CO)C(=O)N[C@@H](CC(=O)O)C(=O)N[C@H](C(=O)N[C@@H](Cc1c[nH]c2ccccc12)C(=O)N[C@@H](Cc1c[nH]c2ccccc12)C(=O)NCC(=O)NCC(=O)N[C@@H](C)C(=O)N[C@@H](CC(=O)O)C(=O)N[C@H](C(=O)N[C@@H](CC(=O)O)C(N)=O)[C@@H](C)O)C(C)C (Ac-ED[NMeD]SDVWWGGADTD-NH2)

Ki [3]: 85600 ± 10100 nM
Structure (SMILES): CC(=O)N[C@@H](CCC(=O)O)C(=O)N[C@@H](CC(=O)O)C(=O)N[C@@H](CC(=O)O)C(=O)N[C@@H](CO)C(=O)N[C@@H](CC(=O)O)C(=O)N[C@H](C(=O)N(C)[C@@H](Cc1c[nH]c2ccccc12)C(=O)N[C@@H](Cc1c[nH]c2ccccc12)C(=O)NCC(=O)NCC(=O)N[C@@H](C)C(=O)N[C@@H](CC(=O)O)C(=O)N[C@H](C(=O)N[C@@H](CC(=O)O)C(N)=O)[C@@H](C)O)C(C)C [EDDSDV(N-Me-W)WGGADTD] (Ac-EDDSDV[NMeW]WGGADTD-NH2)

Ki [4]: 499 ± 17 nM
Structure (SMILES): CC(=O)N[C@@H](CCC(=O)O)C(=O)N[C@@H](CC(=O)O)C(=O)N[C@@H](CC(=O)O)C(=O)N[C@@H](CO)C(=O)N[C@@H](CC(=O)O)C(=O)N[C@H](C(=O)N[C@@H](Cc1c[nH]c2ccccc12)C(=O)N[C@@H](Cc1cccc2ccccc12)C(=O)NCC(=O)NCC(=O)N[C@@H](C)C(=O)N[C@@H](CC(=O)O)C(=O)N[C@H](C(=O)N[C@@H](CC(=O)O)C(N)=O)[C@@H](C)O)C(C)C [EDDSDVW(1Nala)GGADTD] (Ac-EDDSDVW[1Nal]GGADTD-NH2)

Ki (Table 3, SPOT hit validation and previously reported peptides): 2630 ± 97 nM
Structure (SMILES): CC(=O)N[C@@H](CC(=O)O)C(=O)N[C@@H](CC(=O)O)C(=O)N[C@@H](CO)C(=O)N[C@@H](CC(=O)O)C(=O)N[C@H](C(=O)N[C@@H](Cc1c[nH]c2ccccc12)C(=O)N[C@@H](Cc1c[nH]c2ccccc12)C(=O)NCC(=O)NCC(N)=O)C(C)C (Ac-DDSDVWWGG-NH2)

Ki [1]: 32 ± 1.4 nM
Structure (SMILES): CC[C@H](C)[C@H](NC(=O)[C@H](Cc1ccccc1)NC(=O)[C@H](CCC(=O)O)NC(=O)[C@@H](NC(=O)[C@H](CCC(=O)O)NC(=O)[C@@H](NC(=O)[C@@H](NC(C)=O)[C@@H](C)O)[C@@H](C)O)[C@@H](C)O)C(=O)N[C@@H](C)C(=O)N[C@@H](Cc1c[nH]c2ccccc12)C(=O)NCC(=O)N1CCC[C@H]1C(=O)N[C@H](C(=O)NCC(=O)N[C@@H](CC(=O)O)C(=O)N[C@@H](CCC(=O)O)C(=O)N[C@@H](CC(=O)O)C(N)=O)[C@@H](C)O (Ac-TTETEFIAWGPTGDED-NH2)

Ki [1]: > 125000 nM
Structure (SMILES): CC(=O)N[C@@H](C)C(=O)N[C@@H](Cc1c[nH]c2ccccc12)C(=O)NCC(=O)N1CCC[C@H]1C(=O)N[C@H](C(=O)NCC(=O)N[C@@H](CC(=O)O)C(=O)N[C@@H](CCC(=O)O)C(=O)N[C@@H](CC(=O)O)C(N)=O)[C@@H](C)O [AWGPTGDED] (Ac-AWGPTGDED-NH2)

Ki (Table 12, deep mutational scanning validation variants of PIANPWT): 792 ± 11 nM
Structure (SMILES): CC[C@H](C)[C@H](NC(=O)[C@H](C)NC(=O)[C@H](Cc1ccccc1)NC(=O)[C@@H]1CCCN1C(C)=O)C(=O)N[C@H](C(=O)N[C@@H](Cc1c[nH]c2ccccc12)C(=O)NCC(=O)N1CCC[C@H]1C(=O)N[C@H](C(=O)N[C@H](C(=O)N[C@@H](CO)C(=O)N[C@@H](CCCNC(=N)N)C(=O)N[C@@H](CCC(=O)O)C(=O)N[C@@H](CC(=O)O)C(N)=O)C(C)C)[C@@H](C)O)C(C)C [PFAIVWGPTVSRED] (Ac-PFAIVWGPTVSRED-NH2)
